In PubChem BioAssay (NCI) one finds GI50 and TGI data, which are given here for 12 compounds.

Values joined by “and” are separate entries in the source; they are usually repeats but may differ in a detail not shown here. Identical values can stand only once.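 Briefly, cells in 96-well plates were exposed to five compound concentrations for 48 h, and endpoints were estimated by linear interpolation. Abbreviation: GI50, concentration required for 50% inhibition of growth. TGI: total growth inhibition.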

Some test systems named below: 786-0 renal; CAKI-1 renal; HCT-15 colon; HS 578T breast; HT29 colon; IGROV1 ovarian; KM12 colon; MALME-3M melanoma; NCI-H226 lung; SF-539 CNS.
Test in all cases: inhibition of tumour cell growth, NCI panel, 48 h

On to `C=C1C(=O)O[C@H]2[C@H]1CC/C(COC(=O)c1cc3cc(F)ccc3[nH]1)=C\CC[C@@]1(C)O[C@@H]21`, for which the GI50 in the assay with 786-0 renal is 1.78 µM; with CAKI-1 renal, 1.2 µM; with HCT-15 colon, 1.15 µM; with HS 578T breast, 2.95 µM; in the assay on HT29 colon it was 1.13 µM; in the assay on IGROV1 ovarian, 1.44 µM. Moreover, the GI50 in the assay with KM12 colon was 1.98 µM; in the assay with MALME-3M melanoma, 1.67 µM; in the assay on NCI-H226 lung it was 1.76 µM; with SF-539 CNS, 1.55 µM. Besides, the TGI in the assay with 786-0 renal worked out at 3.75 µM; in the assay on CAKI-1 renal, 2.62 µM; in the assay on HCT-15 colon, 3.34 µM; with HS 578T breast, 18.8 µM; in the assay on HT29 colon, 3.14 µM; with IGROV1 ovarian it was 3.14 µM. The TGI in the assay with KM12 colon worked out at 5.06 µM; in the assay on MALME-3M melanoma, 3.53 µM; with NCI-H226 lung it was 3.52 µM; in the assay with SF-539 CNS it was 3.19 µM.
`Cc1ncc(CN=Cc2ccc(Cl)cc2)c(N)n1`: the TGI with 786-0 renal, in the assay with CAKI-1 renal, with HCT-15 colon, with HS 578T breast, in the assay with HT29 colon and with IGROV1 ovarian was above 100 µM in each case. Moreover, the TGI in the assay on KM12 colon, with MALME-3M melanoma, in the assay on NCI-H226 lung and with SF-539 CNS was above 100 µM in each case.
With `COc1ccc2c(c1)[nH]c(=O)c1c3cc(C)c(C)cc3cn21`, the GI50 in the assay with 786-0 renal was below 0.0233 µM; in the assay on CAKI-1 renal, below 0.01 µM; in the assay with HCT-15 colon, below 0.0142 µM; in the assay with HS 578T breast, below 0.01 µM; in the assay on HT29 colon, below 0.01 µM; in the assay on IGROV1 ovarian it was below 0.0188 µM. Also, the GI50 with KM12 colon is 0.0292 µM; in the assay with MALME-3M melanoma it was 0.161 µM; in the assay on NCI-H226 lung, 0.389 µM; in the assay on SF-539 CNS, 0.0186 µM. In addition, the TGI in the assay with 786-0 renal stood at 1.6 µM; in the assay with CAKI-1 renal, 0.0102 µM; in the assay with HCT-15 colon it was 0.363 µM; with IGROV1 ovarian, 0.215 µM; with KM12 colon, 0.109 µM; in the assay with MALME-3M melanoma, 2.76 µM. The figures for the TGI in the assay on NCI-H226 lung and in the assay with SF-539 CNS were 21.7 µM and 0.0578 µM, respectively.
Take `Cc1ccc(CNc2c3ccccc3nc3ccccc23)cc1`: the GI50 with 786-0 renal is 1.95 µM; in the assay on CAKI-1 renal it was 1.53 µM; in the assay with HCT-15 colon, 1.8 µM; with HS 578T breast, 2.46 µM; in the assay with HT29 colon, 2.08 µM; in the assay on IGROV1 ovarian, 1.88 µM. Further, the GI50 with KM12 colon was 3.4 µM; in the assay with MALME-3M melanoma, 1.66 µM; with NCI-H226 lung, 1.87 µM; in the assay on SF-539 CNS it was 1.57 µM. Further, the TGI with 786-0 renal is 4.26 µM; in the assay with CAKI-1 renal, 4.57 µM; in the assay on HCT-15 colon, 4.42 µM; in the assay on HS 578T breast it was 6.6 µM; with HT29 colon it was 10.7 µM; in the assay on IGROV1 ovarian it was 5.56 µM. For the same compound, the TGI in the assay on KM12 colon worked out at 12.9 µM; with MALME-3M melanoma, 3.18 µM; in the assay on NCI-H226 lung, 5.12 µM; with SF-539 CNS it was 3.01 µM.
As for `COc1cc2c(cc1OC)C(=O)/C(=C/c1cccc(OCC(=O)c3ccccc3)c1)C2`, the GI50 in the assay with 786-0 renal was 35.5 µM; in the assay with CAKI-1 renal, 12.7 µM; in the assay with HCT-15 colon, 9.3 µM; in the assay with HS 578T breast, 13.1 µM; in the assay with HT29 colon, 12.9 µM; with IGROV1 ovarian, 5.79 µM. The GI50 is 7.79 µM in the assay on KM12 colon, 25.1 µM in the assay with MALME-3M melanoma, 20.2 µM in the assay with NCI-H226 lung and 16.2 µM with SF-539 CNS. In addition, the TGI with 786-0 renal was above 100 µM; with CAKI-1 renal, 79.3 µM; in the assay with HCT-15 colon, above 100 µM; in the assay with HS 578T breast, 75.2 µM; in the assay with HT29 colon it was above 100 µM; with IGROV1 ovarian, above 100 µM. Also, the TGI in the assay with KM12 colon is above 100 µM; with MALME-3M melanoma, above 100 µM; in the assay on NCI-H226 lung it was above 100 µM; in the assay with SF-539 CNS, 63.9 µM.
As to `C=CCn1c2c(c3ccccc3c1=O)C(=O)c1ccccc1-2`, the TGI in the assay on 786-0 renal, in the assay on CAKI-1 renal, with HCT-15 colon, in the assay with HS 578T breast, with HT29 colon and in the assay with IGROV1 ovarian was above 100 µM each time. For the same compound, the TGI in the assay with KM12 colon, in the assay with MALME-3M melanoma, in the assay with NCI-H226 lung and in the assay with SF-539 CNS was above 100 µM throughout.
Take `COc1cc(C2CC(c3ccc(C)cc3)=NN2C=O)ccc1Oc1ccnc2cc(Cl)ccc12` (configuration not stated): the GI50 with 786-0 renal was 5.07 µM; in the assay with CAKI-1 renal it was above 50 µM; in the assay on HCT-15 colon, above 50 µM; with HS 578T breast, 1.82 µM; in the assay with HT29 colon, above 50 µM; in the assay on IGROV1 ovarian it was 24.8 µM. For the same compound, the GI50 in the assay on KM12 colon was above 50 µM; with MALME-3M melanoma, above 50 µM; in the assay with NCI-H226 lung, 1.81 µM; in the assay with SF-539 CNS it was 3.85 µM. Further, the TGI in the assay with 786-0 renal was 19.6 µM; in the assay with CAKI-1 renal, above 50 µM; with HCT-15 colon, above 50 µM; with HS 578T breast, above 50 µM; with HT29 colon it was above 50 µM; in the assay on IGROV1 ovarian, above 50 µM. Moreover, the TGI is above 50 µM with KM12 colon, above 50 µM with MALME-3M melanoma, above 50 µM in the assay with NCI-H226 lung and 27 µM with SF-539 CNS.
Consider `N#Cc1c(Sc2ccccc2N)cccc1Sc1ccccc1N`, for which the GI50 with 786-0 renal is 37.8 µM; in the assay on CAKI-1 renal it was 60.8 µM; with HCT-15 colon it was 55.6 µM; in the assay on HS 578T breast, 22.5 µM; in the assay on HT29 colon, 63.4 µM; with IGROV1 ovarian, 50.9 µM. Further, the GI50 in the assay with KM12 colon was 66.7 µM; in the assay on MALME-3M melanoma, 25.3 µM; in the assay on NCI-H226 lung, 96.8 µM; in the assay on SF-539 CNS, 69.7 µM.
In the case of `C=C1C(=O)O[C@H]2[C@H]1CC/C(Cn1cc(CNC(=O)Cc3cn(C(=O)c4ccc(Cl)cc4)c4ccc(OC)cc34)nn1)=C\CC[C@@]1(C)O[C@@H]21`, the GI50 was 1.59 µM with 786-0 renal; 1.49 µM in the assay with CAKI-1 renal; 2.77 µM with HCT-15 colon; 2.61 µM in the assay with HS 578T breast; 1.67 µM with HT29 colon; 1.71 µM in the assay on IGROV1 ovarian. Further, the GI50 in the assay with KM12 colon is 2.78 µM; in the assay on MALME-3M melanoma, 1.62 µM; with NCI-H226 lung it was 1.76 µM; with SF-539 CNS, 1.57 µM. Also, the TGI in the assay with 786-0 renal amounted to 3.02 µM; with CAKI-1 renal, 2.89 µM; with HCT-15 colon it was 10.7 µM; in the assay on HS 578T breast, 6.78 µM; with HT29 colon, 3.5 µM; in the assay with IGROV1 ovarian, 3.32 µM. Moreover, the TGI came out at 7.23 µM with KM12 colon, 3.18 µM in the assay with MALME-3M melanoma, 3.41 µM in the assay with NCI-H226 lung and 2.96 µM with SF-539 CNS.
In the case of `O=C1NCc2ccc3c(-c4cccc(Cl)c4)c[nH]c3c21`, the GI50 in the assay with 786-0 renal is 0.276 µM; in the assay on CAKI-1 renal, 0.205 µM; in the assay on HCT-15 colon, 0.163 µM; in the assay with HS 578T breast, 0.182 µM; with HT29 colon it was 0.18 µM; in the assay with IGROV1 ovarian, 0.316 µM. For the same compound, the GI50 with KM12 colon was 0.196 µM; in the assay on MALME-3M melanoma, 0.191 µM; in the assay with NCI-H226 lung, 28.9 µM; in the assay with SF-539 CNS, 0.166 µM. In addition, the TGI with 786-0 renal, in the assay on CAKI-1 renal, with HCT-15 colon, in the assay on HS 578T breast, in the assay on HT29 colon and in the assay on IGROV1 ovarian was above 50 µM throughout. Further, the TGI with KM12 colon is above 29.7 µM; with MALME-3M melanoma, above 50 µM; with NCI-H226 lung it was above 50 µM; with SF-539 CNS, 3.29 µM.
For `CNc1ccc2nc3ccc(=[N+](C)C)cc-3sc2c1`, the GI50 was 3.84 µM and 1.27 µM in the assay with 786-0 renal; 1.28 µM and 1.4 µM in the assay with CAKI-1 renal; 1.57 µM and 0.424 µM in the assay on HCT-15 colon; 4.68 µM and 1.98 µM with HS 578T breast; 2.92 µM and 3.06 µM in the assay with HT29 colon; 2.36 µM and 1.28 µM in the assay with IGROV1 ovarian. Moreover, the GI50 is 1.15 µM and 0.651 µM in the assay with KM12 colon; 0.335 µM and 0.482 µM in the assay with MALME-3M melanoma; 2.31 µM and 2.53 µM in the assay with NCI-H226 lung; 0.383 µM and 0.278 µM in the assay with SF-539 CNS. For the same compound, the TGI in the assay on 786-0 renal is 17.6 µM and 16 µM; with CAKI-1 renal, 9.17 µM and 6.02 µM; in the assay on HCT-15 colon it was 18.2 µM and 16.5 µM; in the assay with HT29 colon, 12.2 µM and 12.5 µM; in the assay on IGROV1 ovarian it was 10.5 µM and 4.06 µM; in the assay on KM12 colon, 17.6 µM and 11.6 µM. Moreover, the TGI is 2.36 µM and 1.97 µM in the assay on MALME-3M melanoma; 10.8 µM and 12.4 µM in the assay on NCI-H226 lung; 2.65 µM and 1.73 µM in the assay on SF-539 CNS.
Turning to `COc1cc(O)c([C@@H]2C[C@H](CCc3ccc(O)cc3)O[C@H](c3ccc(O)cc3)C2)c(O)c1C(=O)/C=C/c1ccc(O)cc1`, the GI50 was 2.28 µM in the assay on 786-0 renal; 5.76 µM in the assay with CAKI-1 renal; 2.45 µM in the assay with HCT-15 colon; 2.53 µM in the assay with HS 578T breast; 3.31 µM in the assay with HT29 colon; 2.2 µM in the assay with IGROV1 ovarian. In addition, the GI50 in the assay with KM12 colon is 9.83 µM; in the assay on MALME-3M melanoma, 3.39 µM; in the assay on NCI-H226 lung it was 7.04 µM; in the assay with SF-539 CNS, 2.23 µM. The TGI in the assay on 786-0 renal was 4.97 µM; in the assay with CAKI-1 renal it was 18.3 µM; in the assay with HCT-15 colon it was 6.88 µM; in the assay with HS 578T breast, 15.4 µM; in the assay on HT29 colon it was 10.2 µM; with IGROV1 ovarian, 5.44 µM. The TGI in the assay on KM12 colon is above 35 µM; with MALME-3M melanoma it was above 30.8 µM; with NCI-H226 lung, 21.5 µM; in the assay with SF-539 CNS, 4.98 µM.
